Values after ≈ are worked out from the molar mass of the structure shown. Where two headings read alike, the source gives them in different places.
Legend:
[1] = tested on: wild-type M. tuberculosis strain H37Rv; assay: microbe, parasite or virus in culture; type: cell-based; details: for fold reduction in whole-cell activity: relative to compound 41
Mtb IMPDH = molecular target: T1, Mtb IMPDH (Mycobacterium tuberculosis, UniProt P9WKI7); assay: IMPDH biochemical assay (inhibition of Mtb GuaB2); details: for IC50: Mtb IMPDH (GuaB2) enzyme
T1 construct: made in house

[2] = Mycobacterium tuberculosis, H37RV, wild-type M. tuberculosis H37Rv, read-out: MIC90 against WT
[3] = Mycobacterium tuberculosis, H37RV, read-out: MIC90 against WT, wild-type M. tuberculosis H37Rv
[4] = wild-type M. tuberculosis H37Rv, read-out: MIC90 against WT

T1 sequence (P9WKI7 whole entry, looked up): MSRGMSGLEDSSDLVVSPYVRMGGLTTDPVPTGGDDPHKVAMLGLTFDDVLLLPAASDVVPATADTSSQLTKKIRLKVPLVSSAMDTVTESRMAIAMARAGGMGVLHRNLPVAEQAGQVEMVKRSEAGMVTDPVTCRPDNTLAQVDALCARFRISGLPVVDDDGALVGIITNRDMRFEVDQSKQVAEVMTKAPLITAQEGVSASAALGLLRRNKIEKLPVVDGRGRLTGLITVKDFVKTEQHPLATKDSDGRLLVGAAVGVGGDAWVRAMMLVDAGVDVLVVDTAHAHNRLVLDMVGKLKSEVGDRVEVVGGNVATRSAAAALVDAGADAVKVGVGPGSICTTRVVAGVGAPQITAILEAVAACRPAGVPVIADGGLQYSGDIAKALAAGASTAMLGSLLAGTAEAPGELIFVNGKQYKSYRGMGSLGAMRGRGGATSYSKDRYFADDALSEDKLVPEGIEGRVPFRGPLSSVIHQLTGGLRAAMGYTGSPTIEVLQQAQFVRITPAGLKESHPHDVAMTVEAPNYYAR

| Compound | MIC90 [1, 2] | IC50 (Mtb IMPDH) | other results |
| --- | --- | --- | --- |
| O=C(NC1CCN(S(=O)(=O)c2cccc3cnccc23)CC1)C1CCCCC1 [Compound 4, N-[1-(isoquinoline-5-sulfonyl)piperidin-4-yl]cyclohexanecarboxamide] | > 100 µM | 9700 ± 300 nM | – |
| CC1CN(S(=O)(=O)c2cccc3cnccc23)CCN1C(=O)C1CCCCC1 (centres unmarked) [Compound 3, Cyclohexyl[4-(isoquinoline-5-sulfonyl)-2-methylpiperazin-1-yl]methanone] | 100 µM (≈ 40.2 µg/mL) | > 100000 nM | – |
| O=C(Cc1ccc([N+](=O)[O-])cc1)N1CCN(S(=O)(=O)c2cccc3cnccc23)CC1 [Compound 30, 1-(4-(isoquinolin-5-ylsulfonyl)piperazin-1-yl)-2-(4-nitrophenyl)ethan-1-one] | 250 µM (≈ 110 µg/mL) | 5300 ± 200 nM | – |
| O=C(C1CCCCC1)N1CCN(S(=O)(=O)c2ccc3ccccc3c2)CC1 [Compound 8, Cyclohexyl[4-(naphthalene-2-sulfonyl)piperazin-1-yl]methanone] | > 100 µM | 1600 ± 100 nM | – |
| COc1ccc(CC(=O)N2CCN(S(=O)(=O)c3cccc4cnccc34)CC2)c(OC)c1 [Compound 27, 1-[4-(isoquinoline-5-sulfonyl)piperazin-1-yl]-2-(2,4-dimethoxyphenyl)ethan-1-one] | 250 µM (≈ 114 µg/mL) | 1980 ± 100 nM | – |
| O=C(NCCNS(=O)(=O)c1cccc2cnccc12)C1CCCCC1 [Compound 2, N-{2-[(isoquinoline-5-sulfonyl)amino]ethyl}cyclohexanecarboxamide] | – | 500 ± 20 nM | MIC90 [1, 3]: 50 µM (≈ 18.1 µg/mL) |
| Cc1cc2c(S(=O)(=O)N3CCN(C(=O)C4CCCCC4)CC3)cccc2cn1 [Compound 6, Cyclohexyl[4-(3-methylisoquinoline-5-sulfonyl)piperazin-1-yl]methanone] | – | > 100000 nM | MIC90 [1, 3]: 100 µM (≈ 40.2 µg/mL); MIC90 [1, 4]: >100 µM |
| O=C(CC1CCC2(CC1)OCCO2)N1CCN(S(=O)(=O)c2cccc3cnccc23)CC1 [Compound 23, 2-(1,4-dioxaspiro[4.5]decan-8-yl)-1-[4-(isoquinoline-5-sulfonyl)piperazin-1-yl]ethan-1-one] | 250 µM (≈ 115 µg/mL) | 3300 ± 200 nM | – |
| O=S(=O)(c1cccc2cnccc12)N1CCN(C(=S)Nc2ccc3c(c2)OCO3)CC1 [Compound 42, N-(benzo[d][1,3]dioxol-5-yl)-4-(isoquinolin-5-ylsulfonyl)piperazine-1-carbothioamide] | 50 µM (≈ 22.8 µg/mL) | 1100 ± 100 nM | fold reduction in whole-cell activity [1]: 8 fold |
| O=C(CC1CCCCC1)N1CCN(S(=O)(=O)c2cccc3cnccc23)CC1 [Compound 22, 2-Cyclohexyl-1-(4-(isoquinolin-5-ylsulfonyl)piperazin-1-yl)ethan-1-one] | 31.2 µM (≈ 12.5 µg/mL) | 230 ± 20 nM | – |
| O=C(C1CCCCC1)N1CCC(NS(=O)(=O)c2cccc3cnccc23)CC1 [Compound 5, N-[1-(cyclohexanecarbonyl)piperidin-4-yl]isoquinoline-5-sulfonamide] | > 100 µM | 14700 ± 300 nM | – |
| O=C(C1CCCCC1)N1CCN(S(=O)(=O)c2cccc3cnccc23)CC1 [Compound 1, Cyclohexyl[4-(isoquinoline-5-sulfonyl)piperazin-1-yl]methanone] | 2 µM (≈ 0.775 µg/mL) | 100 ± 10 nM | – |
| O=C(Nc1ccc(Cl)c([N+](=O)[O-])c1)N1CCN(S(=O)(=O)c2cccc3cnccc23)CC1 [Compound 35, N-(4-chloro-3-nitrophenyl)-4-(isoquinolin-5-ylsulfonyl)piperazine-1-carboxamide] | 12.5 µM (≈ 5.95 µg/mL) | 5600 ± 200 nM | – |
| Cc1ccc(NC(=O)N2CCN(S(=O)(=O)c3cccc4cnccc34)CC2)cc1Cl [Compound 38, N-(3-chloro-4-methylphenyl)-4-(isoquinolin-5-ylsulfonyl)piperazine-1-carboxamide] | 100 µM (≈ 44.5 µg/mL) | 1600 ± 200 nM | – |
| CC1CCCCC1C(=O)N1CCN(S(=O)(=O)c2cccc3cnccc23)CC1 (centres unmarked) [Compound 13, [4-(isoquinoline-5-sulfonyl)piperazin-1-yl](2-methylcyclohexyl)methanone] | 31.2 µM (≈ 12.5 µg/mL) | 84 nM | – |
| O=C(Nc1ccc2c(c1)OCO2)N1CCN(S(=O)(=O)c2cccc3cnccc23)CC1 [Compound 41, N-(benzo[d][1,3]dioxol-5-yl)-4-(isoquinolin-5-ylsulfonyl)piperazine-1-carboxamide] | 6.3 µM (≈ 2.78 µg/mL) | 80 ± 5 nM | – |
| O=C(C1CCCCC1)N1CCN(S(=O)(=O)c2cccc3ccccc23)CC1 [Compound 7, Cyclohexyl[4-(naphthalene-1-sulfonyl)piperazin-1-yl]methanone] | > 100 µM | 3000 ± 100 nM | – |
| CC1(C(=O)N2CCN(S(=O)(=O)c3cccc4cnccc34)CC2)CCCCC1 [Compound 12, [4-(isoquinoline-5-sulfonyl)piperazin-1-yl](1-methylcyclohexyl)methanone] | 250 µM (≈ 100 µg/mL) | 2400 ± 10 nM | – |
| O=C(Nc1ccc2c(c1)OCO2)N1CCC(NS(=O)(=O)c2cccc3cnccc23)CC1 [Compound 43, 4-[(isoquinoline-5-sulfonyl)amino]-N-(2H-1,3-benzodioxol-5-yl)piperidine-1-carboxamide] | > 100 µM | > 100000 nM | – |

| Compound | MIC90 [1, 2] | IC50 (Mtb IMPDH) | other results |
| --- | --- | --- | --- |
| N#Cc1cccc(C(=O)N2CCN(S(=O)(=O)c3cccc4cnccc34)CC2)c1 [Compound 16, 3-[4-(isoquinoline-5-sulfonyl)piperazine-1-carbonyl]benzonitrile] | 25 µM (≈ 10.2 µg/mL) | 8600 ± 500 nM | – |
| O=C(Nc1ccc(Cl)cc1)N1CCN(S(=O)(=O)c2cccc3cnccc23)CC1 [Compound 33, N-(4-chlorophenyl)-4-(isoquinolin-5-ylsulfonyl)piperazine-1-carboxamide] | 250 µM (≈ 108 µg/mL) | 15000 ± 500 nM | – |
| O=C(c1cccc([N+](=O)[O-])c1)N1CCN(S(=O)(=O)c2cccc3cnccc23)CC1 [Compound 18, [4-(isoquinoline-5-sulfonyl)piperazin-1-yl](3-nitrophenyl)methanone] | 12.5 µM (≈ 5.33 µg/mL) | 1100 ± 100 nM | – |
| N#Cc1cccc(NC(=O)N2CCN(S(=O)(=O)c3cccc4cnccc34)CC2)c1 [Compound 31, N-(3-cyanophenyl)-4-(isoquinolin-5-ylsulfonyl)piperazine-1-carboxamide] | 15.6 µM (≈ 6.58 µg/mL) | 150 ± 30 nM | – |
| O=C(Nc1ccc(F)c(Cl)c1)N1CCN(S(=O)(=O)c2cccc3cnccc23)CC1 [Compound 36, N-(3-chloro-4-fluorophenyl)-4-(isoquinolin-5-ylsulfonyl)piperazine-1-carboxamide] | 31.2 µM (≈ 14 µg/mL) | 42 ± 2 nM | – |
| O=C(Nc1cccc(C(F)(F)F)c1)N1CCN(S(=O)(=O)c2cccc3cnccc23)CC1 [Compound 32, 4-(isoquinolin-5-ylsulfonyl)-N-(3-(trifluoromethyl)phenyl)piperazine-1-carboxamide] | 62.5 µM (≈ 29 µg/mL) | 80 ± 5 nM | – |
| O=C(OCc1ccccc1)N1CCN(S(=O)(=O)c2cccc3cnccc23)CC1 [Compound 49, Benzyl 4-(isoquinolin-5-ylsulfonyl)piperazine-1-carboxylate] | 100 µM (≈ 41.1 µg/mL) | 800 ± 50 nM | – |
| O=C(NCCNS(=O)(=O)c1cccc2cnccc12)C1CCC1 [Compound 10, N-{2-[(isoquinoline-5-sulfonyl)amino]ethyl}cyclobutanecarboxamide] | 100 µM (≈ 33.3 µg/mL) | 2700 ± 100 nM | – |
| COc1cccc(CNC(=O)N2CCN(S(=O)(=O)c3cccc4cnccc34)CC2)c1 [Compound 47, 4-(isoquinolin-5-ylsulfonyl)-N-(3-methoxybenzyl)piperazine-1-carboxamide] | 3.1 µM (≈ 1.37 µg/mL) | 35 ± 2 nM | fold greater potency than 1 (IMPDH) (Mtb IMPDH; relative to compound 1): ~3 fold |
| Cc1cccc(CC(=O)N2CCN(S(=O)(=O)c3cccc4cnccc34)CC2)c1 [Compound 28, 1-(4-(isoquinolin-5-ylsulfonyl)piperazin-1-yl)-2-(m-tolyl)ethan-1-one] | 250 µM (≈ 102 µg/mL) | 11500 ± 300 nM | – |
| COc1cccc(CC(=O)N2CCN(S(=O)(=O)c3cccc4cnccc34)CC2)c1 [Compound 26, 1-[4-(isoquinoline-5-sulfonyl)piperazin-1-yl]-2-(3-methoxyphenyl)ethan-1-one] | 250 µM (≈ 106 µg/mL) | 2600 ± 200 nM | – |
| O=C(NCCNS(=O)(=O)c1cccc2cnccc12)C1CC1 [Compound 9, N-{2-[(isoquinoline-5-sulfonyl)amino]ethyl}cyclopropanecarboxamide] | 100 µM (≈ 31.9 µg/mL) | 6900 ± 200 nM | – |
| COc1cc(C(=O)N2CCN(S(=O)(=O)c3cccc4cnccc34)CC2)cc(OC)c1OC [Compound 20, [4-(isoquinoline-5-sulfonyl)piperazin-1-yl](3,4,5-trimethoxyphenyl)methanone] | 15.6 µM (≈ 7.36 µg/mL) | 12000 ± 500 nM | – |
| Cc1cccc(Cl)c1NC(=O)N1CCN(S(=O)(=O)c2cccc3cnccc23)CC1 [Compound 40, N-(2-chloro-6-methylphenyl)-4-(isoquinolin-5-ylsulfonyl)piperazine-1-carboxamide] | 250 µM (≈ 111 µg/mL) | 3400 ± 100 nM | – |
| O=C(Nc1ccc2c(c1)OCO2)N1CCCN(S(=O)(=O)c2cccc3cnccc23)CC1 [Compound 44, 4-(isoquinoline-5-sulfonyl)-N-(2H-1,3-benzodioxol-5-yl)-1,4-diazepane-1-carboxamide] | 12.5 µM (≈ 5.68 µg/mL) | 600 ± 20 nM | fold reduction in whole-cell activity [1]: 2 fold; fold reduction in biochemical activity (Mtb IMPDH; relative to compound 41): 8 fold |
| O=C(NCCNS(=O)(=O)c1cccc2cnccc12)c1cc([N+](=O)[O-])cc([N+](=O)[O-])c1 [Compound 21, N-{2-[(isoquinoline-5-sulfonyl)amino]ethyl}-3,5-dinitrobenzamide] | 15.6 µM (≈ 6.95 µg/mL) | 300 ± 20 nM | – |
| N#Cc1cccc(CC(=O)N2CCN(S(=O)(=O)c3cccc4cnccc34)CC2)c1 [Compound 24, 3-{2-[4-(isoquinoline-5-sulfonyl)piperazin-1-yl]-2-oxoethyl}benzonitrile] | 125 µM (≈ 52.6 µg/mL) | 5960 ± 200 nM | – |
| O=C(c1ccccc1)N1CCN(S(=O)(=O)c2cccc3cnccc23)CC1 [Compound 15, [4-(isoquinoline-5-sulfonyl)piperazin-1-yl](phenyl)methanone] | > 100 µM | 8100 ± 100 nM | MIC90 [1, 4]: >100 µM |
